Source: patent publication US20210137934A1, “METHODS OF IDENTIFYING MYC-DRIVEN AND LIPOGENESIS-DEPENDENT NEOPLASMS AND METHODS OF TREATING THE SAME” (The Board of Trustees of the Leland Stanford Junior …, priority 2017, published 2021)
Entries after “also recorded” stand apart in the source; their conditions may differ.

Assays:
[1] = tested on: human lymphoma B-cell line (P493-6); assay: In vitro cell proliferation by total live cell counts, P493-6; type: cell-based; details: P493-6 cells, various concentrations
Procedure: (§1) Cell culture conditions. P493-6 cells are cultured in Gibco's RPM11640 media under normal culture conditions of 20% O2, 4% CO2, and 37° C. P493 cells are suspension cells, and they are kept at 0.2-1.8 million cells/ml density to avoid confluency. In order to turn off Myc, 1 μg/ml of tetracycline is applied to the media for 48 hours to completely suppress Myc. Mouse-derived renal carcinoma line E28 and human RCC 786-O cell line are cultured for in vitro experiments under normal culture conditions of 20% O2, 4% CO2, and 37° C. 786-O and E28 cells are maintained in Dulbecco's Modified Eagle Medium (DMEM), which is supplemented with 10% fetal bovine serum (FBS), 1% L-glutamine, 1% sodium pyruvate, 1% nonessential amino acids, and Antibiotic-Antimycotic. Trypsin-EDTA is used to passage E28 and 786-O cells. All cell culture reagents are purchased from Gibco® (Thermo Fisher Scientific Inc.).
(§2) Small molecule inhibitors. The small molecule, TOFA (Sigma), diluted in dimethyl sulfoxide (DMSO) to the desired concentrations is added to cell culture medium to achieve inhibition of ACACA. TOFA is an allosteric inhibitor of ACACA, the enzyme which catalyzes the rate-limiting step of fatty acid synthesis. Various concentrations of TOFA are administered to cells in culture over time to assess dose-response suppression of proliferation. For in vivo treatment of mice, 25 mg/kg TOFA is administered daily by intraperitoneal injections (IP). The stock TOFA is diluted in DMSO to 10 mg/ml, such that the final injected volume is around 50 μl since the mice weigh about 20 g.
(§3) Cell counting. A volume of cells is removed from culture medium and mixed with an equal volume of 0.4% Trypan blue stain. Then 10 μl hemocytometer for cell counting. Viable cell counts are used as a measure of cell proliferation.

RCC (E28) cells = assay: In vitro cell proliferation by total live cell counts, E28; type: cell-based, mouse; details: for cell growth / proliferation (total live cell counts): various concentrations
Procedure: as §1, §2, §3

HCC (EC4) cells = assay: In vitro cell growth, EC4; type: cell-based, mouse
Procedure: as §2, with “g. Cell counting. A volume of cells is removed from culture medium and mixed with an equal volume of 0.4% Trypan blue stain. Then 10 μl hemocytometer for cell counting. Viable cell counts are used as a measure of cell proliferation.” for “g.”

T-ALL (4188) cells = assay: In vitro cell growth, 4188; type: cell-based, mouse; details: 4188 T-ALL cells
Procedure: as §2, with “g. Cell counting. A volume of cells is removed from culture medium and mixed with an equal volume of 0.4% Trypan blue stain. Then 10 μl hemocytometer for cell counting. Viable cell counts are used as a measure of cell proliferation.” for “g.”

[2] = tested on: transgenic MYC-induced RCC; assay: Transgenic MYC-induced RCC mouse model, tumor growth (kidney weight and size, histology); type: in vivo; details: 25 mg/kg daily IP
Procedure: as §2

[3] = tested on: human RCC 786-O xenograft; assay: Human RCC 786-O xenograft in NSG mice; type: in vivo, mouse; details: 25 mg/kg daily IP
Procedure: as §1
as §2, with “For in vivo treatment of mice, 25 mg/kg TOFA is administered daily by intraperitoneal injections (IP). The stock TOFA is diluted in DMSO to 10 mg/ml, such that the final injected volume is around 50 μl since the mice weigh about 20 g.” left out

[4] = tested on: human RCC tumor derived cell line, 786-0; assay: Human RCC 786-O cell line treated in vitro; type: cell-based; details: 786-0 cell line treated in vitro
Procedure: as §1
as §2, with “For in vivo treatment of mice, 25 mg/kg TOFA is administered daily by intraperitoneal injections (IP). The stock TOFA is diluted in DMSO to 10 mg/ml, such that the final injected volume is around 50 μl since the mice weigh about 20 g.” left out

PGs and PIs [5] = assay: DESI-MSI lipid profile in transgenic MYC-induced RCC; type: in vivo, mouse
Procedure: as §2
(§4) Desorption Electrospray Ionization Mass Spectrometry Imaging (DESI-MSI). DESI-MSI is used for generating two-dimensional chemical maps of various tissues sections in order to assess the lipid profile of an organ. Tissue sections of 16 μm thick are imaged by this method using a lab-built DESI-MSI source coupled to an LTQ-Orbitrap XL mass spectrometer (Thermo Fisher Scientific, MA), and the mass spectra are acquired in negative ion mode using the Orbitrap as the mass analyzer at 60,000 resolving power. […] All tissues are histopathologically evaluated after imaging using standard hematoxylin and eosin (H&E) staining, to ensure a correct interpretation of lipid signals. […]

PGs and PIs [6] = assay: DESI-MSI lipid profile in human RCC xenograft; type: in vivo, mouse
Procedure: as §2, §4

SMILES | cell growth / proliferation (total live cell counts) [1] | cell growth / proliferation (total live cell counts) ([1]; listed as Cerulenin) | cell growth / proliferation (total live cell counts) (RCC (E28) cells) | cell growth (HCC (EC4) cells) | cell growth (T-ALL (4188) cells) | rescue of growth inhibition by addition of oleate (RCC (E28) cells; oleate added) | tumor progression / regression, treatment after tumor onset ([2]; treatment at week 2 (15 day MYC on tumor), kidney weight and size, histology) | tumor growth / tumorigenesis, treatment before tumor onset ([2]; treatment from week 0 (day 0 MYC on)) | xenograft tumor growth [3] | tumor cell response in vitro [4] | PGs and PIs by DESI-MSI during tumor initiation and regression (PGs and PIs [5]) | PGs and PIs by DESI-MSI (PGs and PIs [6])
C/C=C/C/C=C/CCC(=O)[C@H]1O[C@H]1C(N)=O [cerulenin, Cerulenin] | growth inhibited in vitro in a dose-dependent manner | decreased in a dose-dependent manner | growth inhibited in vitro in a dose-dependent manner | growth inhibited in vitro in a dose-dependent manner | growth inhibited in vitro in a dose-dependent manner |  |  |  |  |  |  | 
CCCCCCCCCCCCCCOc1ccc(C(=O)O)o1 [TOFA, 5-(tetradecyloxy)-2-furancarboxylic acid] | growth inhibited in vitro in a dose-dependent manner; also recorded: decreased in a dose-dependent manner |  | growth inhibited in vitro in a dose-dependent manner; also recorded: similar |  |  | partially rescuable; also recorded: partially rescued | regressed; also recorded: induced tumor regression; also recorded: significantly reduces kidney tumor progression | blocked; also recorded: prevented tumor growth; also recorded: completely prevents tumorigenesis | regresses; also recorded: exhibited tumor regression | exhibited tumor regression | suppressed; also recorded: block PGs and PIs | block PGs and PIs
